Measured values reported in patent publication US9248145B2, “Two alkylresorcinol synthase genes from sorghum; cloning, expression, transformation and characterization” (The United States of America, as represented by The …, priority 2010, dated 2016).

Assays:
recombinant ARS1 [1] = molecular target: T1, recombinant ARS1 (Sorghum bicolor, UniProt C5Y4Z2); assay: Steady-state kinetics with [2-14C]-malonyl-CoA, TLC/phosphor imaging; assay type: biochemical; conditions: for Km: same conditions as kcat; for kcat: starter kinetics: 40 μM [2-14C]-malonyl-CoA, 1.43-10 μM starter, malonyl-CoA kinetics: 25 μM palmitoleoyl-CoA starter, pH 7.0, 30° C., 5 min
T1 sequence (C5Y4Z2 entry or part of it): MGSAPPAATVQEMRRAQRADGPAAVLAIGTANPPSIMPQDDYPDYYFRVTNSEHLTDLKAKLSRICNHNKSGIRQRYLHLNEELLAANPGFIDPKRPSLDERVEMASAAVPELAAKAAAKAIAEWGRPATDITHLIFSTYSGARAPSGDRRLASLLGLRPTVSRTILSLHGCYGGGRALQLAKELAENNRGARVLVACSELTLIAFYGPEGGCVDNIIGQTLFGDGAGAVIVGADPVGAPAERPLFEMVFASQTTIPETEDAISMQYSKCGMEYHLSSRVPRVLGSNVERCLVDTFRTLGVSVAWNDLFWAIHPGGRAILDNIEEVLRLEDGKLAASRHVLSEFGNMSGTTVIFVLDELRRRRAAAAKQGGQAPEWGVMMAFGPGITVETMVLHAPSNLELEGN
Method: (§1) Enzyme assays, performed in triplicate, for starter unit CoA kinetics contained 100 mM potassium phosphate buffer (pH 7.0), 40 μM [2-^14C]-malonyl-CoA (50-60 mCi/mmol, 1.85-2.22 GBq/mmol; American Radiolabeled Chemicals, Inc., St. Louis, Mo.), 1.43-10 μM starter unit (e.g., palmitoyl-CoA), and 0.75 μg protein in a 200 μL volume at 30° C. for 5 min. Enzyme assays for malonyl-CoA kinetics contained 100 mM potassium phosphate buffer (pH 7.0), 1.66-25 μM [2-^14C]-malonyl-CoA, 25 μM starter unit (palmitoleoyl-CoA), and 0.75 μg protein in a 200 μL volume at 30° C. for 5 min. Reactions were quenched by addition of 10 μL of 20% HCl. The products were extracted as described above, and were separated by thin layer chromatography (silica gel 60 F254; chloroform:ethyl acetate=70:30; 15 min). Product detection and formation was quantified through the use of the Cyclone storage phosphor system and OptiQuant 3.0 image analysis software (PerkinElmer, Wellesley, Mass.). Data were fit to the Michaelis-Menten equation using the Sigma Plot 9.01 enzyme kinetics module (Systat, Inc., San Jose, Calif.).

recombinant ARS2 [2] = molecular target: T2, recombinant ARS2 (Sorghum bicolor, UniProt C5YRS1); assay: as above; assay type: biochemical; conditions: for Km: same conditions as kcat; for kcat: starter kinetics: 40 μM [2-14C]-malonyl-CoA, 1.43-10 μM starter, malonyl-CoA kinetics: 25 μM palmitoleoyl-CoA starter, pH 7.0, 30° C., 5 min
T2 sequence (C5YRS1 entry or part of it): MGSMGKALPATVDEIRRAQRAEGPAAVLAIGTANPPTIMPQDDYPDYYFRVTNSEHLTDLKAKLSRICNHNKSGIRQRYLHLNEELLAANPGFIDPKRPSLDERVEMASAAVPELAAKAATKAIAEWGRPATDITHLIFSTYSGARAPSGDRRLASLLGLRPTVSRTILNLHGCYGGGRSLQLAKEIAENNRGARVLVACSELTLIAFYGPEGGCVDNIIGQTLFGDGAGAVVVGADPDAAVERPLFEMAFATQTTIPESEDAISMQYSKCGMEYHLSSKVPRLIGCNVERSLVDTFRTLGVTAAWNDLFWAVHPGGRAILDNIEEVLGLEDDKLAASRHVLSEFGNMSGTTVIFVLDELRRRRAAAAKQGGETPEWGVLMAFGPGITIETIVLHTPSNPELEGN
Method: as §1

recombinant ARS2 [3] = molecular target: T2, recombinant ARS2; assay: Polyketide synthase enzyme assay, 5-alkylresorcinol formation (GC-MS, m/z 268); assay type: biochemical; conditions: for activity as starter unit (in words): malonyl-CoA extender
Method: (§2) Reactions were quenched by addition of 10 μL of 20% HCl, and products were extracted by phase partitioning with 1 ml of ethyl acetate. The organic phase (upper layer) obtained by centrifugation at ˜14,000×g for 1 min was transferred to a fresh tube, dried under vacuum, and subsequently analyzed by GC-EI-MS as a trimethysilyl (TMS) derivative.
(§3) Reactions were quenched by addition of 10 μL of 20% HCl. The products were extracted as described above, and were separated by thin layer chromatography (silica gel 60 F254; chloroform:ethyl acetate=70:30; 15 min). Product detection and formation was quantified through the use of the Cyclone storage phosphor system and OptiQuant 3.0 image analysis software (PerkinElmer, Wellesley, Mass.).
(§4) Recombinant enzyme studies were next performed to examine substrate preferences for the 3 putative type III PKS enzymes maximally expressed in root hairs. […] Acyl-CoAs varying in length and degree of saturation were tested in enzymatic assays with all three recombinant enzymes, as well as the non-linear starter units benzoyl-CoA, isovaleryl-CoA, and isobutryl-CoA used by several other plant type III PKS enzymes (Austin and Noel, supra).

recombinant Os10g08620 = assay: Polyketide synthase enzyme assay, alkylresorcinol synthase activity; assay type: biochemical, Oryza sativa
Method: (§5) Polyketide synthase enzyme assays, performed in triplicate, contained 100 mM potassium phosphate buffer (pH 7.0), 40 μM malonyl-CoA, 25 μM starter unit (e.g., palmitoyl-CoA), and 2 μg protein in a 200 μL volume at 30° C. for 15 min. […] Reactions were quenched by addition of 10 μL of 20% HCl, and products were extracted by phase partitioning with 1 ml of ethyl acetate. The organic phase (upper layer) obtained by centrifugation at ˜14,000×g for 1 min was transferred to a fresh tube, dried under vacuum, and subsequently analyzed by GC-EI-MS as a trimethysilyl (TMS) derivative. Product formation was quantified using selective ion monitoring at m/z 268, a fragment ion common to all alkylresorcinols, generated by benzylic cleavage of the alkyl side chain. The identification of the m/z 268 [(5-methyl-1,3 phenylene)bis(oxy)bis(TMS)]^+ base ion and the parent [M]^+ provide confirmation of the 5-alkylresorcinolic structure as well as the length and degree of saturation of the associated side chain (Occolowitz, 1964. Anal. Chem. 36:2177-2181; Suzuki et al. 1996, supra; Suzuki at al. 2003, supra).
as §1
(§6) To explore this possibility, the predicted open reading frames encoded by O. sativa (cv. Nipponbare) LOC_Os05g12180, LOC_Os10g08620, and LOC_Os10g07040, were also expressed in E. coli as N-terminal polyhistidine fusions, and tested for alkylresorcinol synthase activity with the same panel of fatty acyl-CoA substrates used for recombinant ARS1 and ARS2 enzymatic studies (FIG. 4).

recombinant Os10g07040 = assay: as above; assay type: biochemical, Oryza sativa
Method: as §5, §1, §6

recombinant Os05g12180 = assay: as above; assay type: biochemical, Oryza sativa
Method: as §5, §1, §6

recombinant ARS1 [4] = molecular target: T1, recombinant ARS1; assay: Polyketide synthase enzyme assay, 5-alkylresorcinol formation (GC-MS, m/z 268); assay type: biochemical; conditions: for activity as starter unit (in words): malonyl-CoA extender
Method: as §2, §3, §4

[5] = 25 μM starter unit, 40 μM malonyl-CoA, pH 7.0, 30° C., 15 min

`CCCCCCCCCCCCCCCC(=O)SCCNC(=O)CCNC(=O)[C@H](O)C(C)(C)COP(=O)(O)OP(=O)(O)OC[C@H]1O[C@@H](n2cnc3c(N)ncnc32)[C@H](O)[C@@H]1OP(=O)(O)O` [C16:0-CoA, palmitoyl-CoA] gave a Km (recombinant ARS1 [1]) of 2.3 µM, a kcat (recombinant ARS1 [1]) of 0.0132 s⁻¹ and a Km (recombinant ARS2 [2]) of 4.1 µM. It also gave a kcat (recombinant ARS2 [2]) of 0.0183 s⁻¹.

`CCCCCC/C=C\CCCCCCCC(=O)SCCNC(=O)CCNC(=O)[C@H](O)C(C)(C)COP(=O)(O)OP(=O)(O)OC[C@H]1O[C@@H](n2cnc3c(N)ncnc32)[C@H](O)[C@@H]1OP(=O)(O)O` [C16:1-CoA, palmitoleoyl-CoA] was tested, and the “maximal 5-alkylresorcinol-forming activity” value (recombinant ARS2 [3]; [5]) was 60.1 pkat mg^1, the Km (recombinant ARS1 [1]) was 2.3 µM and the kcat (recombinant ARS1 [1]) was 0.0183 s⁻¹. For the same compound, the Km (recombinant ARS2 [2]) was 3.6 µM and the kcat (recombinant ARS2 [2]) was 0.0233 s⁻¹.

Work on `CC(C)(COP(=O)(O)OP(=O)(O)OC[C@H]1O[C@@H](n2cnc3c(N)ncnc32)[C@H](O)[C@@H]1OP(=O)(O)O)[C@@H](O)C(=O)NCCC(=O)NCCSC(=O)CC(=O)O` [Malonyl-CoA, malonyl-CoA] yielded a Km (recombinant ARS1 [1]) of 5.2 µM, a kcat (recombinant ARS1 [1]) of 0.0148 s⁻¹ and a Km (recombinant ARS2 [2]) of 5.8 µM. For the same compound, the kcat (recombinant ARS2 [2]) was 0.0123 s⁻¹.

`CCCCC/C=C\C/C=C\C/C=C\C/C=C\CCCC(=O)SCCNC(=O)CCNC(=O)[C@H](O)C(C)(C)COP(=O)(O)OP(=O)(O)OC[C@H]1O[C@@H](n2cnc3c(N)ncnc32)[C@H](O)[C@@H]1OP(=O)(O)O` [arachidonoyl-CoA] was tested, and the “activity as starter unit (in words)” value (recombinant Os10g08620) was “No activity”, the “activity as starter unit (in words)” value (recombinant Os10g07040) was “No activity” and the “activity as starter unit (in words)” value (recombinant Os05g12180) was “No activity”.

In the case of `CC(C)(COP(=O)(O)OP(=O)(O)OC[C@H]1O[C@@H](n2cnc3c(N)ncnc32)[C@H](O)[C@@H]1OP(=O)(O)O)[C@@H](O)C(=O)NCCC(=O)NCCSC(=O)c1ccccc1` [benzoyl-CoA], the “activity as starter unit (in words)” value (recombinant ARS1 [4]) is reported as “No activity” and the “activity as starter unit (in words)” value (recombinant ARS2 [3]) is reported as “No activity”.

With `CCCCCCCC(=O)SCCNC(=O)CCNC(=O)[C@H](O)C(C)(C)COP(=O)(O)OP(=O)(O)OC[C@H]1O[C@@H](n2cnc3c(N)ncnc32)[C@H](O)[C@@H]1OP(=O)(O)O` [capryloyl-CoA] the “triketide pyrone derailment product, share of the total moles product derived from the starter” value (shortened to “triketide pyrone derailment product”) (recombinant ARS1 [4]) was ~33%.

`C=CC/C=C\C/C=C\CCCCCCCCSCCNC(=O)CCNC(=O)[C@H](O)C(C)(C)COP(=O)(O)OP(=O)(O)OC[C@H]1O[C@@H](n2cnc3c(N)ncnc32)[C@H](O)[C@@H]1OP(=O)(O)O` [hexadecatrienyl-CoA, (9Z,12Z)-Hexadeca-9,12,15-trienyl-CoA] was tested, and the “activity as starter unit (in words)” value (recombinant ARS1 [4]) was “utilized” and the “activity as starter unit (in words)” value (recombinant ARS2 [3]) was “utilized”.

For `CCCCCC(=O)SCCNC(=O)CCNC(=O)[C@H](O)C(C)(C)COP(=O)(O)OP(=O)(O)OC[C@H]1O[C@@H](n2cnc3c(N)ncnc32)[C@H](O)[C@@H]1OP(=O)(O)O` [hexanoyl-CoA], the “triketide pyrone derailment product” value (recombinant ARS1 [4]) was “approximately 9%”, the “triketide pyrone derailment product” value (recombinant ARS2 [3]) was “approximately 9%” and the “activity as starter unit (in words)” value (recombinant Os10g08620) was “No activity”. The “activity as starter unit (in words)” value (recombinant Os10g07040) was “No activity” and the “activity as starter unit (in words)” value (recombinant Os05g12180) was “No activity”.

`CC(C)C(=O)SCCNC(=O)CCNC(=O)[C@H](O)C(C)(C)COP(=O)(O)OP(=O)(O)OC[C@H]1O[C@@H](n2cnc3c(N)ncnc32)[C@H](O)[C@@H]1OP(=O)(O)O` [isobutyryl-CoA] was tested, and the “activity as starter unit (in words)” value (recombinant ARS1 [4]) was “No activity” and the “activity as starter unit (in words)” value (recombinant ARS2 [3]) was “No activity”.

With `CC(C)CC(=O)SCCNC(=O)CCNC(=O)[C@H](O)C(C)(C)COP(=O)(O)OP(=O)(O)OC[C@H]1O[C@@H](n2cnc3c(N)ncnc32)[C@H](O)[C@@H]1OP(=O)(O)O` [isovaleryl-CoA] the “activity as starter unit (in words)” value (recombinant ARS1 [4]) was “No activity” and the “activity as starter unit (in words)” value (recombinant ARS2 [3]) was “No activity”.

`CCCCCCCCCCCCCC(=O)SCCNC(=O)CCNC(=O)[C@H](O)C(C)(C)COP(=O)(O)OP(=O)(O)OC[C@H]1O[C@@H](n2cnc3c(N)ncnc32)[C@H](O)[C@@H]1OP(=O)(O)O` [myristoyl-CoA] was tested, and the “triketide pyrone derailment product” value (recombinant ARS1 [4]) was ~15%, the “maximal 5-alkylresorcinol-forming activity” value (recombinant ARS1 [4]; [5]) was 81.0 pkat mg^−1 and the “triketide pyrone derailment product” value (recombinant ARS2 [3]) was < 5%.
